Results published in article PMC5663706, “Diversity oriented biosynthesis via accelerated evolution of modular gene clusters” (Nature Communications, 2017).

How the values were obtained:
Saccharomyces cerevisiae = Saccharomyces cerevisiae MIC assay (microdilution); type: cell-based; details: RPMI 1640 broth, 37 °C, 24 h, read-out: S. cerevisiae MIC
Protocol: We additionally assessed the rapalogs for antifungal activity using a standard Saccharomyces cerevisiae MIC assay. As expected, activity was similar to that observed for the mTORC1 pathway assay, likely through inhibition of TOR1 and TOR2.
Minimum Inhibitory Concentration (MIC) values for each compound were determined using the microdilution method. Briefly, stock solutions of the 6 test rapalogs (6.4 mg mL^−1 in methanol) were diluted 1:50 in RPMI 1640 broth (Sigma-Aldrich) to a working concentration of 128 µg ml^−1, and serially diluted in broth (1:2) in sterile, polypropylene 96-well plates, 100 µL per well. Saccharomyces cerevisiae was cultured in RPMI 1640 broth, 37 °C, 250 r.p.m., 18 h. […] A volume of 100 µL aliquots of this dilution were added to each well and mixed by gentle trituration. Plates were incubated at 37 °C for 24 h. The concentration of compound at which no visible growth was apparent was determined to be the MIC.

[1] = test system: human macrophages challenged with B. pseudomallei; type: cell-based
FKBP12 = FKBP12 (Homo sapiens, UniProt P62942); experiment: FKBP12 PPIase inhibition assay; type: biochemical; details: 10 °C, pH 8.0, 6 nM FKBP12, 60 µM SUC-ALPF-pNA, read-out: FKBP12 K i
Sequence of FKBP12 (P62942 whole entry, species assumed): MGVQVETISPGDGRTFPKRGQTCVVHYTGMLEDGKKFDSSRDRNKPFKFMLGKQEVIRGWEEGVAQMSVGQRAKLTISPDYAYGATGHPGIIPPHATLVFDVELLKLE

[2] = test system: mTORC1 pathway (p-S6 formation)

SMILES: COC1CC2CCC(C)C(O)(O2)C(=O)C(=O)N2CCCCC2C(=O)OC(C(C)CC2CCC(O)CC2)CC=C(C)C(O)CC(=O)C(C)CC(C)C=CC=CC=C1C (stereo not shown) [Compound 7]
- MIC (Saccharomyces cerevisiae): < 2 µg/mL
- survival of human macrophages challenged with B. pseudomallei [1]: increase the survival
- Ki (FKBP12): 7.9 nM
- IC50 [2]: 100 nM

SMILES: COC(CC1CCC(C)C(O)(CC(=O)N2CCCCC2C(=O)O)O1)C(C)=CC=CC=CC(C)CC1CCC(O)CC1 (stereo not shown) [Compound 2]
- MIC (Saccharomyces cerevisiae): > 64 µg/mL
- Ki (FKBP12): > 1000 nM
- IC50 [2]: 1000 nM

SMILES: COC1CC2CCC(C)C(O)(O2)C(=O)C(=O)N2CCCCC2C(=O)OC(C(C)CC2CCC(O)CC2)CC(=O)C(C)C=C(C)C(O)C(OC)C(=O)C(C)CC(C)C=CC=CC=C1C (stereo not shown) [Compound 1, 39-desmethoxyrapamycin]
- MIC (Saccharomyces cerevisiae): < 0.25 µg/mL
- Ki (FKBP12): 2.5 nM

SMILES: COC1CC2CCC(C)C(O)(CC(=O)N3CCCCC3C(=O)OC(C(C)CC3CCC(O)CC3)CC(=O)C(C)CC(C)C=CC=CC=C1C)O2 (stereo not shown) [Compound 5]
- MIC (Saccharomyces cerevisiae): < 64 µg/mL
- Ki (FKBP12): 370 nM
- IC50 [2]: 300 nM

SMILES: CO[C@H]1C[C@@H]2CC[C@@H](C)[C@@](O)(O2)C(=O)C(=O)N2CCCC[C@H]2C(=O)O[C@H]([C@H](C)C[C@H]2CC[C@H](O)CC2)CC(O)CC(=O)[C@H](C)/C=C(\C)[C@@H](O)CC(=O)[C@H](C)C[C@H](C)/C=C/C=C/C=C/1C (stereo partly shown) [Compound 8]
- MIC (Saccharomyces cerevisiae): < 2 µg/mL
- Ki (FKBP12): 6.5 nM

SMILES: CO[C@H]1C[C@@H]2CC[C@@H](C)[C@@](O)(O2)C(=O)C(=O)N2CCCC[C@H]2C(=O)O[C@H]([C@H](C)C[C@@H]2CC[C@@H](O)[C@H](OC)C2)CC(=O)[C@H](C)/C=C(\C)[C@@H](O)[C@@H](OC)C(=O)[C@H](C)C[C@H](C)/C=C/C=C/C=C/1C [Rapamycin, reference compound]
- MIC (Saccharomyces cerevisiae): < 0.25 µg/mL
- IC50 [2]: < 1 nM

SMILES: C\C1=C/C=C/C=C/[C@@H](C)C[C@@H](C)C(=O)[C@H]2CC[C@@H](CC2)OC(=O)[C@@H]2CCCCN2C(=O)C(=O)[C@]2(O)O[C@@H](CC[C@H]2C)C[C@@H]1O [Compound 3]
- MIC (Saccharomyces cerevisiae): > 64 µg/mL
- Ki (FKBP12): 460 nM
- IC50 [2]: > 1900 nM
